Assay results from PubChem BioAssay (NCI).
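Cells were grown in 96-well plates and exposed to each compound for 48 hours at five concentrations; endpoints were interpolated linearly between bracketing concentrations, or set to the highest concentration if not reached. The concentration for full growth arrest is given as TGI.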

Legend:
Assay in all cases: growth of human tumour cells (NCI), 48 h
786-0 renal = tested on: 786-0 renal
A498 renal = tested on: A498 renal
A549 NSCLC = tested on: A549 NSCLC
BT-549 breast = tested on: BT-549 breast
CAKI-1 renal = tested on: CAKI-1 renal
CCRF-CEM leukemia = tested on: CCRF-CEM leukemia
COLO 205 colon = tested on: COLO 205 colon
DU-145 prostate = tested on: DU-145 prostate
EKVX NSCLC = tested on: EKVX NSCLC
HCC-2998 colon = tested on: HCC-2998 colon
HCT-15 colon = tested on: HCT-15 colon
HL-60(TB) leukemia = tested on: HL-60(TB) leukemia
HOP-62 NSCLC = tested on: HOP-62 NSCLC
HOP-92 NSCLC = tested on: HOP-92 NSCLC
HS 578T breast = tested on: HS 578T breast
IGROV1 ovarian = tested on: IGROV1 ovarian
K-562 leukemia = tested on: K-562 leukemia
KM12 colon = tested on: KM12 colon
LOX IMVI melanoma = tested on: LOX IMVI melanoma
M14 melanoma = tested on: M14 melanoma
MALME-3M melanoma = tested on: MALME-3M melanoma
MCF7 breast = tested on: MCF7 breast
MDA-MB-231 breast = tested on: MDA-MB-231 breast
MDA-N = tested on: MDA-N
MOLT-4 leukemia = tested on: MOLT-4 leukemia
NCI-H226 lung = tested on: NCI-H226 lung
NCI-H23 lung = tested on: NCI-H23 lung
NCI-H460 lung = tested on: NCI-H460 lung
NCI/ADR-RES ovarian = tested on: NCI/ADR-RES ovarian
OVCAR-4 ovarian = tested on: OVCAR-4 ovarian
OVCAR-8 ovarian = tested on: OVCAR-8 ovarian
RPMI-8226 leukemia = tested on: RPMI-8226 leukemia
SF-268 CNS = tested on: SF-268 CNS
SF-539 CNS = tested on: SF-539 CNS
SK-MEL-28 melanoma = tested on: SK-MEL-28 melanoma
SK-MEL-5 melanoma = tested on: SK-MEL-5 melanoma
SK-OV-3 ovarian = tested on: SK-OV-3 ovarian
SN12C renal = tested on: SN12C renal
SNB-75 CNS = tested on: SNB-75 CNS
SR leukemia = tested on: SR leukemia
SW-620 colon = tested on: SW-620 colon
T-47D breast = tested on: T-47D breast
TK-10 renal = tested on: TK-10 renal
U251 CNS = tested on: U251 CNS
UACC-257 melanoma = tested on: UACC-257 melanoma
UACC-62 melanoma = tested on: UACC-62 melanoma
UO-31 renal = tested on: UO-31 renal

Measured: TGI

COc1ccc(/C(C)=N/NC(=O)c2ccncc2)c(OC)c1
> 10 µM: all assays above
